Experimental data as given in patent US20160090556A1, “PRODUCTS COMPRISING MALODOR REDUCTION MATERIALS” (The Procter & Gamble Company, priority 2014, published 2016).

Experiment: Liquid dish neat product liquid-air partition coefficient
Assay type: physicochemical
Details: for Comment Code: Log of liquid dish neat product liquid-air partition coefficient: code letters K, L

CC(=O)CCCC(C)CCCC(C)CCCC(C)C (stereo not shown) [Material 782]
Log of liquid dish neat product liquid-air partition coefficient (Comment Code K/L): K (Log of liquid dish neat product liquid-air partition coefficient greater than or equal to −7)

O=C1CCCC=CCCCCCCCCCC1 [Material 788]
Log of liquid dish neat product liquid-air partition coefficient (Comment Code K/L): K (Log of liquid dish neat product liquid-air partition coefficient greater than or equal to −7) | Comment Code: Log of liquid dish neat product liquid-air partition coefficient: K (Log of liquid dish neat product liquid-air partition coefficient greater than or equal to −7)

C=Cc1ccc(O)cc1 [Material 789]
Comment Code: Log of liquid dish neat product liquid-air partition coefficient: K (Log of liquid dish neat product liquid-air partition coefficient greater than or equal to −7)

CC1=CCC(O)(C(C)C)CC1 (stereo not shown) [Material 791]
Log of liquid dish neat product liquid-air partition coefficient (Comment Code K/L): K (Log of liquid dish neat product liquid-air partition coefficient greater than or equal to −7)

C=CCCC(=O)c1ccccc1 [Material 792]
Log of liquid dish neat product liquid-air partition coefficient (Comment Code K/L): K (Log of liquid dish neat product liquid-air partition coefficient greater than or equal to −7)

CC1=CCC(O)(C(C)C)CC1 (stereo not shown) [Material 800]
Log of liquid dish neat product liquid-air partition coefficient (Comment Code K/L): K (Log of liquid dish neat product liquid-air partition coefficient greater than or equal to −7)

COc1ccc(CCC(C)=O)cc1 [Material 803]
Log of liquid dish neat product liquid-air partition coefficient (Comment Code K/L): K (Log of liquid dish neat product liquid-air partition coefficient greater than or equal to −7)

CC1C(=O)CC2(C)CCCC(C)(C)C23CC13 (stereo not shown) [Material 804]
Log of liquid dish neat product liquid-air partition coefficient (Comment Code K/L): K (Log of liquid dish neat product liquid-air partition coefficient greater than or equal to −7) | Comment Code: Log of liquid dish neat product liquid-air partition coefficient: K (Log of liquid dish neat product liquid-air partition coefficient greater than or equal to −7)

CCC=C1OC(=O)c2ccccc21 [Material 805]
Log of liquid dish neat product liquid-air partition coefficient (Comment Code K/L): K (Log of liquid dish neat product liquid-air partition coefficient greater than or equal to −7)

Cc1n[nH]cc1-c1ccccc1 [Material 808]
Comment Code: Log of liquid dish neat product liquid-air partition coefficient: K (Log of liquid dish neat product liquid-air partition coefficient greater than or equal to −7)

COc1cc(C)cc(O)c1 [Material 811]
Comment Code: Log of liquid dish neat product liquid-air partition coefficient: K (Log of liquid dish neat product liquid-air partition coefficient greater than or equal to −7)

C=C(C=O)C(C)CCC=C(C)C (stereo not shown) [Material 819]
Comment Code: Log of liquid dish neat product liquid-air partition coefficient: K (Log of liquid dish neat product liquid-air partition coefficient greater than or equal to −7)

CCCCCCCCC=CC#N [Material 827]
Log of liquid dish neat product liquid-air partition coefficient (Comment Code K/L): K (Log of liquid dish neat product liquid-air partition coefficient greater than or equal to −7)

CCCCCCCCC=CC=O [Material 828]
Log of liquid dish neat product liquid-air partition coefficient (Comment Code K/L): K (Log of liquid dish neat product liquid-air partition coefficient greater than or equal to −7)

CCCC(=O)OCCc1ccccc1 [Material 831]
Log of liquid dish neat product liquid-air partition coefficient (Comment Code K/L): K (Log of liquid dish neat product liquid-air partition coefficient greater than or equal to −7)

CC(=O)OCCc1ccccc1 [Material 832]
Comment Code: Log of liquid dish neat product liquid-air partition coefficient: K (Log of liquid dish neat product liquid-air partition coefficient greater than or equal to −7)

OCCOc1ccccc1 [Material 834]
Log of liquid dish neat product liquid-air partition coefficient (Comment Code K/L): K (Log of liquid dish neat product liquid-air partition coefficient greater than or equal to −7)

CCC(=O)OCCc1ccccc1 [Material 835]
Comment Code: Log of liquid dish neat product liquid-air partition coefficient: K (Log of liquid dish neat product liquid-air partition coefficient greater than or equal to −7)

CCCCCCCC1(C)OCC(C)O1 (stereo not shown) [Material 838]
Comment Code: Log of liquid dish neat product liquid-air partition coefficient: K (Log of liquid dish neat product liquid-air partition coefficient greater than or equal to −7)

CCC(C)c1nccnc1OC (stereo not shown) [Material 845]
Comment Code: Log of liquid dish neat product liquid-air partition coefficient: K (Log of liquid dish neat product liquid-air partition coefficient greater than or equal to −7)

CNC(=O)C(C)(C(C)C)C(C)C [Material 846]
Comment Code: Log of liquid dish neat product liquid-air partition coefficient: K (Log of liquid dish neat product liquid-air partition coefficient greater than or equal to −7)

CC(C)Cc1ccc2ccccc2n1 [Material 849]
Log of liquid dish neat product liquid-air partition coefficient (Comment Code K/L): K (Log of liquid dish neat product liquid-air partition coefficient greater than or equal to −7)

CCC=CCCC=CCO [Material 865]
Log of liquid dish neat product liquid-air partition coefficient (Comment Code K/L): K (Log of liquid dish neat product liquid-air partition coefficient greater than or equal to −7)

CCCCCCCCCCO [Material 868]
Log of liquid dish neat product liquid-air partition coefficient (Comment Code K/L): K (Log of liquid dish neat product liquid-air partition coefficient greater than or equal to −7)

C=CCCCCCCCCCO [Material 870]
Log of liquid dish neat product liquid-air partition coefficient (Comment Code K/L): K (Log of liquid dish neat product liquid-air partition coefficient greater than or equal to −7)

C=CCCCCCCCCC=O [Material 871]
Log of liquid dish neat product liquid-air partition coefficient (Comment Code K/L): K (Log of liquid dish neat product liquid-air partition coefficient greater than or equal to −7)

CC=CC(=O)C1C(C)=CCCC1(C)C (stereo not shown) [Material 880]
Comment Code: Log of liquid dish neat product liquid-air partition coefficient: K (Log of liquid dish neat product liquid-air partition coefficient greater than or equal to −7)

C=C[C@](C)(O)CCC=C(C)C [Material 888]
Comment Code: Log of liquid dish neat product liquid-air partition coefficient: K (Log of liquid dish neat product liquid-air partition coefficient greater than or equal to −7)

CC(=O)OC(C)CC/C=C(\C)CCC=C(C)C (stereo not shown) [Material 890]
Log of liquid dish neat product liquid-air partition coefficient (Comment Code K/L): K (Log of liquid dish neat product liquid-air partition coefficient greater than or equal to −7)

C/C(=C/C#N)CCc1ccccc1 [Material 892]
Log of liquid dish neat product liquid-air partition coefficient (Comment Code K/L): K (Log of liquid dish neat product liquid-air partition coefficient greater than or equal to −7)

C/C(=C\C#N)CCc1ccccc1 [Material 894]
Log of liquid dish neat product liquid-air partition coefficient (Comment Code K/L): K (Log of liquid dish neat product liquid-air partition coefficient greater than or equal to −7)

CC(=CCC1CC=C(C)C1(C)C)CO (stereo not shown) [Material 908]
Log of liquid dish neat product liquid-air partition coefficient (Comment Code K/L): K (Log of liquid dish neat product liquid-air partition coefficient greater than or equal to −7)

CC1=CC2CC(C3OCCO3)C1CC2C(C)C (stereo not shown) [Material 912]
Log of liquid dish neat product liquid-air partition coefficient (Comment Code K/L): K (Log of liquid dish neat product liquid-air partition coefficient greater than or equal to −7)

C=C1CCCC(C)(C)C1C=C(C)C(C)=O (stereo not shown) [Material 913]
Log of liquid dish neat product liquid-air partition coefficient (Comment Code K/L): K (Log of liquid dish neat product liquid-air partition coefficient greater than or equal to −7)

CC(C)c1cccc(C(C)CC=O)c1 (stereo not shown) [Material 914]
Log of liquid dish neat product liquid-air partition coefficient (Comment Code K/L): K (Log of liquid dish neat product liquid-air partition coefficient greater than or equal to −7)

C=CC(C)(CCC=C(C)C)OC(C)OCC (stereo not shown) [Material 916]
Log of liquid dish neat product liquid-air partition coefficient (Comment Code K/L): K (Log of liquid dish neat product liquid-air partition coefficient greater than or equal to −7)

C=CCOC(=O)COC1CCCCC1 [Material 918]
Comment Code: Log of liquid dish neat product liquid-air partition coefficient: K (Log of liquid dish neat product liquid-air partition coefficient greater than or equal to −7)

CCC(=O)OC1CC2CC1C1CC=CC21 (stereo not shown) [Material 919]
Log of liquid dish neat product liquid-air partition coefficient (Comment Code K/L): K (Log of liquid dish neat product liquid-air partition coefficient greater than or equal to −7) | Comment Code: Log of liquid dish neat product liquid-air partition coefficient: K (Log of liquid dish neat product liquid-air partition coefficient greater than or equal to −7)

CC1=C2CCC(C)C2CC(C(C)(C)O)CC1 (stereo not shown) [Material 920]
Log of liquid dish neat product liquid-air partition coefficient (Comment Code K/L): K (Log of liquid dish neat product liquid-air partition coefficient greater than or equal to −7)

CC12CCCC(C)(CC1)C2=NO [Material 921]
Comment Code: Log of liquid dish neat product liquid-air partition coefficient: K (Log of liquid dish neat product liquid-air partition coefficient greater than or equal to −7)

CC(=O)c1cc2c(cc1C)C(C)(C)C(C)C2(C)C (stereo not shown) [Material 927]
Log of liquid dish neat product liquid-air partition coefficient (Comment Code K/L): K (Log of liquid dish neat product liquid-air partition coefficient greater than or equal to −7) | Comment Code: Log of liquid dish neat product liquid-air partition coefficient: K (Log of liquid dish neat product liquid-air partition coefficient greater than or equal to −7)

Cc1cccc(CCO)c1 [Material 928]
Log of liquid dish neat product liquid-air partition coefficient (Comment Code K/L): K (Log of liquid dish neat product liquid-air partition coefficient greater than or equal to −7)

CCC=CCC=CCCO [Material 929]
Log of liquid dish neat product liquid-air partition coefficient (Comment Code K/L): K (Log of liquid dish neat product liquid-air partition coefficient greater than or equal to −7)

C=C(OC(C)=O)c1ccccc1 [Material 931]
Comment Code: Log of liquid dish neat product liquid-air partition coefficient: K (Log of liquid dish neat product liquid-air partition coefficient greater than or equal to −7)

CC1CCC2(O)C(C)(C)C3CCC2(C)C1C3 (stereo not shown) [Material 933]
Log of liquid dish neat product liquid-air partition coefficient (Comment Code K/L): K (Log of liquid dish neat product liquid-air partition coefficient greater than or equal to −7) | Comment Code: Log of liquid dish neat product liquid-air partition coefficient: K (Log of liquid dish neat product liquid-air partition coefficient greater than or equal to −7)

CCCCCC(=O)Oc1ccc(C)cc1 [Material 939]
Log of liquid dish neat product liquid-air partition coefficient (Comment Code K/L): K (Log of liquid dish neat product liquid-air partition coefficient greater than or equal to −7)

CCCCC/C=C/C=C\C(=O)OCC [Material 942]
Log of liquid dish neat product liquid-air partition coefficient (Comment Code K/L): K (Log of liquid dish neat product liquid-air partition coefficient greater than or equal to −7)

C=C(C)C1CC=C(C=O)CC1 (stereo not shown) [Material 946]
Log of liquid dish neat product liquid-air partition coefficient (Comment Code K/L): K (Log of liquid dish neat product liquid-air partition coefficient greater than or equal to −7)

C=C(C)C1CC=C(CO)CC1 (stereo not shown) [Material 948]
Log of liquid dish neat product liquid-air partition coefficient (Comment Code K/L): K (Log of liquid dish neat product liquid-air partition coefficient greater than or equal to −7)

CCCCCC=CC=CC(=O)OCC [Material 951]
Log of liquid dish neat product liquid-air partition coefficient (Comment Code K/L): K (Log of liquid dish neat product liquid-air partition coefficient greater than or equal to −7)
